Measured values taken from patent US6160166A, “Phosphonated agents and their antiangiogenic and antitumorigenic use” (priority 1999, dated 2000).

Legend:
[1] = test system: chick chorioallantoic membrane (CAM); assay: Chick egg chorioallantoic membrane (CAM) assay, 6-day, growing vessels: inhibition of angiogenesis; assay type: in vivo; settings: for inhibition in vivo at 70 nmol: Gallus gallus, Tables 1 and 2, dose not given, Em = number of embryos, read-out: % Ih (Inhibition); for antiangiogenic activity relative to suramin: CAM assay / inhibition of angiogenesis, versus suramin; for inhibition of angiogenesis in the 6-day CAM, in words: rapidly growing vessels
From the text: The purpose of this experiment was to test the ability of the phosphonic acid agents described above to inhibit angiogenesis. […]
(§1) Comparison of the inhibition of angiogenesis by 70 nmol of
(§2) suramin or a equimolar amount of a phosphonic acid agents in the
(§3) 6-day and 11-day chick egg chorioallantoic (CAM) assay.

MMP-2 = MMP-2 activity by zymography, human microvascular endothelial cells; assay type: cell-based; settings: for inhibition of MMP-2 activity: human microvascular endothelial cells, zymography; for inhibition of bFGF-induced increase in MMP-2 activity: with bFGF
From the text: Matrix metalloproteinases are an important group of zinc enzymes responsible for the degradation of the extracellular matrix components, such as collagen and proteoglycans. Currently, 16 family members have been identified. MMP family member differ from each other structurally by the presence or absence of domains that contribute to activities such as substrate specificity, inhibitor binding, matrix binding and cell surface localization (Powell and Matrisian, 1996). To determine if the phosphonic acid agents were effective inhibitors of the MMP's of endothelial cells, cells were incubated in the presence of the different agents for 48 hours. Tissue samples were taken and subjected to zymography. Tissue samples were placed in glass homogenizers in a three fold weight/volume of lysis buffer consisting of 50 mM Tris-HCL, pH=7.4, with 200 mM sodium chloride and 0.1% Triton X-100. The samples were homogenized and centrifuged at 1500 g for 20 min. The supernatant was immediately analyzed by zymography. Protein content of each sample was determined by a modified Lowry method.
MMP enzyme activity was detected using polyacrylamide gel eltrophoresis zymography. SDS-polyacrylamide gel electrophoresis (PAGE) was performed using 8% acrylamide gels containing 0.1% gelatin. The volume of test samples loaded was 15 μl. Electrophoresis was run at 4° C. at a constant voltage (100 volts). After electrophoresis, gels were incubated in Triton X-100 (2.5%) for 30 minutes to eliminate SDS, prior to being incubated overnight in 50 mM Tris HCL, pH7.5, containing 10 mM CaCl2 at 37° C. The gels were stained in 0.25% (W/v) Coomassie Brilliant Blue and destained in methanol:acetic acid:water (50:40:10). The clear zones in these gels indicates the presence of proteins with gelatinolytic activity. This method allows for identification of pro-metalloproteinases.Migration position of proteins and with standard molecular weight and supernatant from HT 1080 cells that express MMP-2 and MMP-9 were used as controls.

[2] = test system: human dermal microvascular and porcine pulmonary artery endothelial cells; assay: bFGF-stimulated and non-stimulated endothelial cell growth (total protein, total DNA); assay type: cell-based; settings: 25 μM
From the text: Suramin is a highly charged molecule with six sulfonate groups that are ionized at physiologic pH.

[3] = test system: chick chorioallantoic membrane (CAM); assay: Chick egg chorioallantoic membrane (CAM) assay, 11-day, established vessels; assay type: in vivo; settings: for 11-day CAM % Inhibition: 70 nmol or equimolar amount; for inhibitory activity in the 11-day CAM, in words: established vessels
Protocol: According to Ausprunk et al. (1974), capillary angiogenesis in the CAM is completed by day 11. Measurements of intercapillary distances are also consistent with the cessation of capillary growth after day 10. […] The implants were prepared as previously described by Gagliardi et al. (1992), implanted on day 11 and read on day 13.
as §1, §2, §3

[4] = test system: human dermal Microvascular endothelial cells; assay: Inhibition of bFGF-stimulated growth of human microvascular endothelial cells; assay type: cell-based; settings: for IC50: Homo sapiens, Endothelial cell, bFGF-stimulated, estimated from dose response curve
Protocol: Inhibition of cell growth was evaluated by measuring total protein and total DNA and the IC50 was estimated for each dose response curve.

[5] = test system: different cancer cell lines; assay: MTT cell proliferation, different cancer cell lines; assay type: cell-based, human; settings: cancer cell lines in vitro
[6] = cited from earlier work

O=C(Nc1ccc(OC(=O)P(=O)(O)O)cc1)Nc1ccc(OC(=O)P(=O)(O)O)cc1 [NF 392]
inhibition in vivo at 70 nmol [1]: 6%

O=C(Nc1cccc(C(=O)Nc2cccc(C(=O)Nc3cccc(P(=O)(O)O)c3)c2)c1)Nc1cccc(C(=O)Nc2cccc(C(=O)Nc3cccc(P(=O)(O)O)c3)c2)c1 [NF 050]
antiangiogenic activity relative to suramin [1]: 2 to 4 times | inhibition of MMP-2 activity (MMP-2): potent inhibitors of MMP-2 activity | inhibition of bFGF-induced increase in MMP-2 activity (MMP-2): inhibited the increase in MMP-2 activity induced by bFGF | effect on bFGF stimulation of endothelial cell growth [2]: inhibited the stimulation of endothelial cell growth by bFGF | effect on total protein content versus unstimulated control [2]: significantly reduced total protein content far below the unstimulated control endothelial cells

O=C(Nc1ccc(P(=O)(O)O)cc1)c1cc(NC(=O)c2cccc([N+](=O)[O-])c2)cc(C(=O)Nc2ccc(P(=O)(O)O)cc2)c1 [NF 167]
antiangiogenic activity relative to suramin [1]: 2 to 4 times | effect on bFGF stimulation of endothelial cell growth [2]: inhibited the stimulation of endothelial cell growth by bFGF | effect on total protein content versus unstimulated control [2]: significantly reduced total protein content far below the unstimulated control endothelial cells

O=C(Nc1ccc(C(=O)Nc2cccc(P(=O)(O)O)c2)cc1)Nc1ccc(C(=O)Nc2cccc(P(=O)(O)O)c2)cc1 [NF 069]
inhibition of angiogenesis in the 6-day CAM, in words [1]: very potent inhibitors of angiogenesis | ID50, dose that produces 50% inhibition of angiogenesis ([1]; CAM assay): 9 nmol | antiangiogenic activity relative to suramin [1]: 4-8 times | inhibition in vivo at 70 nmol [1]: 66% | 11-day CAM % Inhibition [3]: 0% | inhibitory activity in the 11-day CAM, in words [3]: no significant inhibitory activity | IC50 [4]: 75 µM | effect on bFGF stimulation of endothelial cell growth [2]: inhibited the stimulation of endothelial cell growth by bFGF | effect on total protein content versus unstimulated control [2]: significantly reduced total protein content far below the unstimulated control endothelial cells

Cc1cc(NC(=O)Nc2ccc(OC(=O)P(=O)(O)O)c(C)c2)ccc1OC(=O)P(=O)(O)O [NF 474]
inhibition in vivo at 70 nmol [1]: 12%

O=C(Nc1ccc(NC(=O)P(=O)(O)O)cc1)Nc1ccc(NC(=O)P(=O)(O)O)cc1 [NF 428]
antiangiogenic activity relative to suramin [1]: 2 to 4 times | effect on bFGF stimulation of endothelial cell growth [2]: inhibited the stimulation of endothelial cell growth by bFGF | effect on total protein content versus unstimulated control [2]: significantly reduced total protein content far below the unstimulated control endothelial cells

O=C(Nc1ccc(P(=O)(O)O)cc1)c1ccc(NC(=S)Nc2ccc(C(=O)Nc3ccc(P(=O)(O)O)cc3)cc2)cc1 [NF 162]
inhibition of MMP-2 activity (MMP-2): potent inhibitors of MMP-2 activity | inhibition of bFGF-induced increase in MMP-2 activity (MMP-2): inhibited the increase in MMP-2 activity induced by bFGF

O=C(Nc1cccc(C(=O)Nc2ccc(P(=O)(O)O)cc2)c1)Nc1cccc(C(=O)Nc2ccc(P(=O)(O)O)cc2)c1 [NF 067]
inhibition of angiogenesis in the 6-day CAM, in words [1]: very potent inhibitors of angiogenesis | ID50, dose that produces 50% inhibition of angiogenesis ([1]; CAM assay): 32 nmol | antiangiogenic activity relative to suramin [1]: 2 to 4 times | inhibition in vivo at 70 nmol [1]: 62% | 11-day CAM % Inhibition [3]: 0% | inhibitory activity in the 11-day CAM, in words [3]: no significant inhibitory activity | IC50 [4]: 19.4 µM | potency relative to suramin, inhibition of endothelial cell growth ([4]; versus suramin, in vitro): 20 times | antiproliferative activity, in words [5]: very low antiproliferative activity | effect on bFGF stimulation of endothelial cell growth [2]: inhibited the stimulation of endothelial cell growth by bFGF | effect on total protein content versus unstimulated control [2]: significantly reduced total protein content far below the unstimulated control endothelial cells

O=C(Nc1ccc(P(=O)(O)O)cc1)Nc1ccc(P(=O)(O)O)cc1 [NF 161]
antiangiogenic activity relative to suramin [1]: 2 to 4 times | inhibition in vivo at 70 nmol [1]: 53% | effect on bFGF stimulation of endothelial cell growth [2]: inhibited the stimulation of endothelial cell growth by bFGF | effect on total protein content versus unstimulated control [2]: significantly reduced total protein content far below the unstimulated control endothelial cells

O=C(Nc1cccc(C(=O)Nc2cccc(P(=O)(O)O)c2)c1)Nc1cccc(C(=O)Nc2cccc(P(=O)(O)O)c2)c1 [NF 068]
antiangiogenic activity relative to suramin or between groups, in words ([1]; CAM assay): does not show any antiangiogenic activity | inhibition in vivo at 70 nmol [1]: 0%

O=C(Nc1cccc(OC(=O)P(=O)(O)O)c1)Nc1cccc(OC(=O)P(=O)(O)O)c1 [NF 426]
inhibition in vivo at 70 nmol [1]: 39%

O=C(Nc1ccc(C(=O)Nc2ccc(P(=O)(O)O)cc2)cc1)Nc1ccc(C(=O)Nc2ccc(P(=O)(O)O)cc2)cc1 [NF 681]
inhibition of angiogenesis in the 6-day CAM, in words [1]: very potent inhibitors of angiogenesis | ID50, dose that produces 50% inhibition of angiogenesis ([1]; CAM assay): 2 nmol | antiangiogenic activity relative to suramin [1]: 4-8 times | inhibition in vivo at 70 nmol [1]: 100% | 11-day CAM % Inhibition [3]: 0% | inhibitory activity in the 11-day CAM, in words [3]: no significant inhibitory activity | IC50 [4]: 1.5 µM | inhibition of MMP-2 activity (MMP-2): potent inhibitors of MMP-2 activity | inhibition of bFGF-induced increase in MMP-2 activity (MMP-2): inhibited the increase in MMP-2 activity induced by bFGF | effect on bFGF stimulation of endothelial cell growth [2]: inhibited the stimulation of endothelial cell growth by bFGF | effect on total protein content versus unstimulated control [2]: significantly reduced total protein content far below the unstimulated control endothelial cells

CN1CCCC1=O [N-methyl-2-pyrrolidone]
toxicity in Ames type assays and chronic exposure studies ([6]; Wells et al.): have not revealed any significant toxicity | irritation or sensitization potential ([6]; animal and human experiments): very little irritation or sensitization potential

O=C(Nc1ccccc1OC(=O)P(=O)(O)O)Nc1ccccc1OC(=O)P(=O)(O)O [NF 473]
inhibition in vivo at 70 nmol [1]: 21%

O=C(Nc1cccc(P(=O)(O)O)c1)Nc1cccc(P(=O)(O)O)c1 [NF 158]
inhibition in vivo at 70 nmol [1]: 0%
